From US8697629B2, “Modulation of intracellular signaling” (Angstrom Pharmaceuticals, Inc., priority 2010, dated 2014)

Key:
CD44 = molecular target: T1, CD44 (Homo sapiens, UniProt P16070); assay: FACs analysis of anti-CD44 (DF1485) binding to SKOV3 cells in the presence of Å6; format: cell-based; settings: pre-incubation with Å6 10 or 30 min on ice
T1 construct: endogenous in cells; host or cells: SKOV3 cells
Protocol: In FIG. 4 SKOV3 cells were detached from their culture flasks by brief trypsinization, washed twice with DPBS and incubated on ice with the indicated concentrations of Å6 for 10 min (exp. 1) or 30 min (exp. 2). Anti-CD44 (DF1485; Santa Cruz Biotech.) or its isotype control were then added to final concentrations of 1 μg/ml (exp. 1) or 1 and 0.5 μg/ml (exp. 2) and the cells incubated for 1 hr on ice. The cells were washed once and incubated with FITC-conjugated donkey anti-mouse IgG (H+L) for 30 minutes on ice and then subjected to FACS analysis with a Beckman Coulter Epics XL-MCL cytofluorimeter. Data analysis was performed using the Coulter Epics software. Note: Data are presented as mean fluorescence intensities (MnI) obtained with the MnI of the negative control in each experiment adjusted to <0.5 during data collection. […] Similar CD44 expression in ovarian cancer lines using different anti-CD44 antibodies is assessed in FIG. 5, for which the MnI values are summarized in FIG. 6.

SKOV3 cells = assay: Boyden chamber chemotaxis/migration of SKOV3 cells; format: cell-based
Protocol: A2780 (FIG. 10a) and SKOV3 (FIG. 10b) cells were incubated with the indicated concentrations of Å6 peptide for 30 min at 37° C. Aliquots representing 6,000 cells were placed on quadruplicate, CnI-coated filters (8 μm pores) in Boyden chambers and the cells allowed to migrate overnight in response to 10 ng/ml VEGF in NIH3T3-conditioned media containing the indicated concentrations of Å6. Upon completion of migration, the apical surfaces of the membranes were wiped clean and the migrating cells on the basal surface were stained with Geimsa stain and the cells present in representative fields of the membranes counted. Data represent the averages+/−standard deviations obtained from the replicate filters. […] This provides further confirmation that CD44 is the target for the Å6 peptide.
SKOV3 cells are harvested by trypsinization and washed once with RPMI−0.5% BSA. Next, the cells are re-suspended in RPMI+0.5% BSA @ 6E4/mL (6000 cells/100 μL). The peptide is pre-treated with 500 μL of cells added to 500 μL peptide NASAPPEE (2× concentration, final conc. at 100, 10, 1, 0.1, 0.01, 0.001 uM) and the mixture incubated 30 minutes at 37° C., under 5% CO2. The Boyden chamber is assembled by: Placing in the bottom chambers: 220 μL of serum/BSA free DMEM or NIH3T3CM+10 ng/ml VEGF or NIH3T3CM+10 ng/ml VEGF+peptide. Place 8 μm filters on the top of the bottom chambers. The 8 μm filters are coated with 1 mg/ml collagen I at 4° C. overnight, washed with PBS twice, air dry before use. Add 200 μL of cells with or without peptide pretreatment to the top of Boyden chamber. Note that the peptide is in both top and bottom chambers. Cells migrate overnight at 37° C., under 5% CO2 in incubator. Next, Boyden chambers are disassembled the and filters collected. The cells on the filters after collection are treated with −20° C. methanol for 3 minutes at room temperature and stained with 30% Geimsa for 7 minutes at room temperature, and washed with water twice. The filters are mounted on slides, air dried and the cells counted.
Cell numbers were obtained by counting the cells in four fields of filters using a 40× objective. The cells migrating into the bottom chambers were also counted as follows: a) 200 μL fluid in the bottom chamber was transferred to a well of 96-well plate; b) The plate was centrifuged at 1200 rpm for 5 minutes; c) 180 μL of supernatant was removed; d) The cell pellet was resuspended with the remaining 20 μL fluid and the cells counted using a hemocytometer. […] This compares favorably to the Å6 peptide which is effective between 5 μM and 100 nM.

T1 sequence (P16070 21-742): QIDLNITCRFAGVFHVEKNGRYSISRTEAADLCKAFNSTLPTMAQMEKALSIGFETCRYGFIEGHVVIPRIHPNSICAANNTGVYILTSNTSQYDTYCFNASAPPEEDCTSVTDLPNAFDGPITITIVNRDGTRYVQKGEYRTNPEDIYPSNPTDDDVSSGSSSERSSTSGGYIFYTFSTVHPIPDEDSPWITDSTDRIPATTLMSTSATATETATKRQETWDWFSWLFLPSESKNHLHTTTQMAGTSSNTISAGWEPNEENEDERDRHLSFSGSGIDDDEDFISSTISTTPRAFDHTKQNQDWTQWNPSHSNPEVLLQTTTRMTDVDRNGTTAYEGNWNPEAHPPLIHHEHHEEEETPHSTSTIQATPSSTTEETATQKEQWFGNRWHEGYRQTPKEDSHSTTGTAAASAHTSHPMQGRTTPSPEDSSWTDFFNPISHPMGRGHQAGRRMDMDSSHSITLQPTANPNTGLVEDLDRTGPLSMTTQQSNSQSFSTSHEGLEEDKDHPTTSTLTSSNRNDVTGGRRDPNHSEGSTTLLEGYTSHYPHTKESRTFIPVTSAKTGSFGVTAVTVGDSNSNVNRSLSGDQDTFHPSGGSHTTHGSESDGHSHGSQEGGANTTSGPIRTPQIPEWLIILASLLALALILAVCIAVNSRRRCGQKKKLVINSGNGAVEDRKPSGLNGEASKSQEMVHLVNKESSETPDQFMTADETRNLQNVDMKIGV

With “acetyl-Lys-Pro-Ser-Ser-Pro-Pro-Glu-Glu-NH2 (Ac-KPSSPPEE-NH2) [Å6]” the “binding of DF1485 anti-CD44 to SKOV3 cells (MnI)” value (CD44) was “inhibits the binding of DF1485 anti-CD44 to SKOV3 cells”, the SKOV3 migration (SKOV3 cells; 10 ng/ml VEGF in NIH3T3-conditioned media, overnight) was “strong inhibition” and the “cell migration inhibition, lower end of effective concentration range” value (SKOV3 cells; SKOV3) was 100 nM. The “cell migration inhibition, upper end of effective concentration range” value (SKOV3 cells; SKOV3) was 5 µM.
